Results published in patent US20160002248A1, “GLS1 INHIBITORS FOR TREATING DISEASE” (Board of Regents, The University of Texas System, priority 2014, published 2016).

Assays:
[1] = system: A549 cells; test: Proliferation Assay (A549 cell viability, Cell Titer Fluor); assay type: cell-based; details: Homo sapiens, 72 hours
Summary of the method: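 A549 cells seeded at 1000 cells/well, left 24 h, then exposed to compound for 72 h at 37 °C, 5% CO2, final DMSO 0.5% (v/v). Viability read by Cell Titer Fluor fluorescence; EC50 from four-parameter logistic fit.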

[2] = target: T1, purified recombinant human GAC (GLS1) (Homo sapiens, UniProt O94925); test: GLS1 Enzymatic Activity Assay (dual-coupled enzymatic assay); assay type: biochemical
T1 sequence (O94925 55-598 isoform O94925-3 limits assumed): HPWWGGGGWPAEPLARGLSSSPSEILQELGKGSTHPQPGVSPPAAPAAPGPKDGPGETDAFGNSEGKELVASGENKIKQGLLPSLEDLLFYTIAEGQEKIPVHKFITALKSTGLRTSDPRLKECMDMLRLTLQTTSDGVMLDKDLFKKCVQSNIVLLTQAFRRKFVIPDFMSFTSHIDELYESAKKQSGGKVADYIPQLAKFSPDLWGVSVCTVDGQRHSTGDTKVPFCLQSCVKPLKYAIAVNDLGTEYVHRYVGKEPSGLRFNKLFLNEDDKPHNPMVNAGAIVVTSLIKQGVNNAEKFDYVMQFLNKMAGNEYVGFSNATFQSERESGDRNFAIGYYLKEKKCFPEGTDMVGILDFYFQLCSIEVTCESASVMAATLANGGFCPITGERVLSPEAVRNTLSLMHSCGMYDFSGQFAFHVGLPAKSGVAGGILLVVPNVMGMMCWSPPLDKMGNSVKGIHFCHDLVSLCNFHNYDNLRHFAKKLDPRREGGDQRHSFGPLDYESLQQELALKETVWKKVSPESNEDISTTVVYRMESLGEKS
Summary of the method: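 Recombinant human GAC (2 nM) preincubated with 50 mM potassium phosphate, then inhibitor (10 min each, RT); 1 mM glutamine, pH 7.4 Hepes buffer, 1% DMSO. Glutamate coupled via glutamate oxidase/HRP to resorufin (Ex 530/Em 590), kinetic or 20-min endpoint; IC50 by four-parameter logistic fit.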

COc1cncc(CNC(=O)c2cn(CCCCc3cc4cc(C5CC5)[nH]c4nn3)nn2)c1 [Example 48, 1-(4-{6-cyclopropyl-7H-pyrrolo[2,3-c]pyridazin-3-yl}butyl)-N-[(5-methoxypyridin-3-yl)methyl]-1H-1,2,3-triazole-4-carboxamide]
EC50 [1]: 500 to 5000 nM
IC50 [2]: < 100 nM

COc1ncccc1CNC(=O)c1cn(CCCCc2cc3cc(C4CC4)[nH]c3nn2)nn1 [Example 49, 1-(4-{6-cyclopropyl-7H-pyrrolo[2,3-c]pyridazin-3-yl}butyl)-N-[(2-methoxypyridin-3-yl)methyl]-1H-1,2,3-triazole-4-carboxamide]
EC50 [1]: 500 to 5000 nM
IC50 [2]: 500 to 5000 nM

Cc1cc(CNC(=O)c2cn(CCCCc3cc4cc(C5CC5)[nH]c4nn3)nn2)nn1C [Example 50, 1-(4-{6-cyclopropyl-7H-pyrrolo[2,3-c]pyridazin-3-yl}butyl)-N-[(1,5-dimethyl-1H-pyrazol-3-yl)methyl]-1H-1,2,3-triazole-4-carboxamide]
EC50 [1]: 500 to 5000 nM
IC50 [2]: 100 to 500 nM

Cn1cc(CNC(=O)c2cn(CCCCc3cc4cc(C5CC5)[nH]c4nn3)nn2)cn1 [Example 51, 1-(4-{6-cyclopropyl-7H-pyrrolo[2,3-c]pyridazin-3-yl}butyl)-N-[(1-methyl-1H-pyrazol-4-yl)methyl]-1H-1,2,3-triazole-4-carboxamide]
EC50 [1]: 500 to 5000 nM
IC50 [2]: 100 to 500 nM

Cn1ccc(CNC(=O)c2cn(CCCCc3cc4cc(C5CC5)[nH]c4nn3)nn2)n1 [Example 52, 1-(4-{6-cyclopropyl-7H-pyrrolo[2,3-c]pyridazin-3-yl}butyl)-N-[(1-methyl-1H-pyrazol-3-yl)methyl]-1H-1,2,3-triazole-4-carboxamide]
EC50 [1]: 500 to 5000 nM
IC50 [2]: 100 to 500 nM

N#Cc1ccc(CNC(=O)c2cn(CCCCc3cc4cc(C5CC5)[nH]c4nn3)nn2)cn1 [Example 53, N-[(6-cyanopyridin-3-yl)methyl]-1-(4-{6-cyclopropyl-7H-pyrrolo[2,3-c]pyridazin-3-yl}butyl)-1H-1,2,3-triazole-4-carboxamide]
EC50 [1]: 500 to 5000 nM
IC50 [2]: 100 to 500 nM

Cn1ccnc1CNC(=O)c1cn(CCCCc2cc3cc(C4CC4)[nH]c3nn2)nn1 [Example 54, 1-(4-{6-cyclopropyl-7H-pyrrolo[2,3-c]pyridazin-3-yl}butyl)-N-[(1-methyl-1H-imidazol-2-yl)methyl]-1H-1,2,3-triazole-4-carboxamide]
EC50 [1]: > 5000 nM
IC50 [2]: 500 to 5000 nM

Cc1cccc(CNC(=O)c2cn(CCCCc3cc4cc(C5CC5)[nH]c4nn3)nn2)n1 [Example 55, 1-(4-{6-cyclopropyl-7H-pyrrolo[2,3-c]pyridazin-3-yl}butyl)-N-[(6-methylpyridin-2-yl)methyl]-1H-1,2,3-triazole-4-carboxamide]
EC50 [1]: 500 to 5000 nM
IC50 [2]: 100 to 500 nM

Cc1ccc(CNC(=O)c2cn(CCCCc3cc4cc(C5CC5)[nH]c4nn3)nn2)nc1 [Example 56, 1-(4-{6-cyclopropyl-7H-pyrrolo[2,3-c]pyridazin-3-yl}butyl)-N-[(5-methylpyridin-2-yl)methyl]-1H-1,2,3-triazole-4-carboxamide]
EC50 [1]: 500 to 5000 nM
IC50 [2]: 100 to 500 nM

O=C(Cc1cccc(OC(F)(F)F)c1)Nc1nnc(CCCCc2cc3cc(Cc4ccccc4)[nH]c3nn2)s1 [Example 58, N-[5-(4-{6-benzyl-7H-pyrrolo[2,3-c]pyridazin-3-yl}butyl)-1,3,4-thiadiazol-2-yl]-2-[3-(trifluoromethoxy)phenyl]acetamide]
EC50 [1]: 100 to 500 nM
IC50 [2]: < 100 nM

CC(C)(C)OC(=O)NCc1cccc(CC(=O)Nc2nnc(CCCCc3cc4cc(Cc5ccccc5)[nH]c4nn3)s2)c1 [Example 59, tert-butyl N-{[3-({[5-(4-{6-benzyl-7H-pyrrolo[2,3-c]pyridazin-3-yl}butyl)-1,3,4-thiadiazol-2-yl]carbamoyl}methyl)phenyl]methyl}carbamate]
EC50 [1]: < 100 nM
IC50 [2]: < 100 nM
